From PubChem BioAssay AID1963850 (Molecular Pharmacology Branch, DTP, NCI, 2024)
“And” between values parts separate entries of the source, which are not always exact repeats. Identical values can stand only once.

System: 192522-019-R-J2-PDC complex tumor spheroid viability
Experiment: Anticancer human tumor 192522-019-R-J2-PDC patient-derived colon adenocarcinoma cell line growth inhibition [POLQ]
Conditions: for viability, T/C: stronger effect = lower value
Protocol: Multicellular complex tumor spheroid response to Polymerase (POL) inhibitors (novobiocin, ART-558, RP6685) in combination with a variety of drugs and investigational agents in selected tumor cell lines
The POL inhibitors (novobiocin, ART-558, and RP6685) were evaluated both individually and in combination with standard of care and investigational anticancer small molecules within a complex spheroid model of solid tumors. . Complex spheroids include a stromal component modeled by human endothelial cells (HUVEC) and fibroblasts modeled by human mesenchymal stem cells (MSCs). The concentration ranges selected for each drug and investigational agent were based upon clinically achievable concentrations if the clinical Cmax of the agent was known.
Compounds. The drugs and investigational agents: novobiocin (NSC847541), ART-558 (NSC835418), RP-6685 (NSC848927), peposertib (NSC802822), ceralasertib (NSC780249), elimusertib (NSC800525), camonsertib (NSC841442), AZD-1390 (NSC803789), olaparib (NSC753686), talazoparib (NSC767125), rucaparib (NSC756644), sotorasib (NSC818433), MRTX-1133 (NSC836407), SN-38 (NSC673596), topotecan (NSC609699), epotoside (NSC141540), doxorubicin (NSC123127), gemcitabine (NSC613327), 5-fluorouracil (NSC19893), paclitaxel (NSC125973), vemurafenib (NSC761431), MSA-2 (NSC828583), SN-011 (NSC837082), adavosertib (NSC754352), prexasertib (NSC758257), carboplatin (NSC241240) and oxaliplatin (NSC266046), were obtained from the National Cancer Institute (NCI) Developmental Therapeutics Program Chemical Repository (21). The FDA-approved anticancer drug set is available from the Developmental Therapeutics Program at https://dtp.cancer.gov/organization/dscb/obtaining/. […] The stock solutions were prepared in dimethyl sulfoxide (DMSO, Sigma-Aldrich, St. Louis, MO, cat. D2650), except for the platinum compounds which were prepared in saline (Quality Biological, Gaithersburg, MD, cat. 114-055-101), at 800-fold the tested concentration and stored at -70 degrees C prior to their use. All drugs and investigational agents were tested over a range starting from a high concentration at or near the clinical Cmax and decreasing in half-log increments. If the clinical Cmax for an agent had not been determined, the highest concentration tested was 10 microM, except for SN-38, which was tested at a high concentration of 1 microM.
Cell Culture. All cells were maintained in an incubator at 37 degrees C and 5% CO2 with 95% humidity. The PDC lines were cultured according to standard operating procedures established by the NCI PDMR (https://pdmr.cancer.gov). Table 3 of the manuscript, lists the cell lines along with the number of the three cell types plated to form the mct-spheroids and media for tumor cell growth. After thawing, all PDC lines, except 997537-175-T-J1-PDC and 415267-285-R-J2-PDC, were cultured in Matrigel-coated flasks prepared with a working solution of 1X Ham's F-12 nutrient mix, without supplementation (Thermo Fisher Scientific, cat. 11765054), 100 U/mL penicillin-streptomycin (Thermo Fisher Scientific, cat. 15140122), and 2.5% Matrigel (Corning Inc., Corning, NY, cat. 354248) for the first three passages. The two PDC lines 997537-175-T-J1-PDC and 415267-285-R-J2-PDC were cultured on uncoated flasks. The 857933-349-R-J2-PDC line was cultured in 6C/Colon 1B media containing advanced DMEM/F-12 (Thermo Fisher Scientific, cat. 12634028), 10 mM HEPES (Thermo Fisher Scientific, cat. 15630080), 1X GlutaMAX supplement (Thermo Fisher Scientific, cat. 35050061), 0.1 mg/mL primocin (InvivoGen, San Diego, CA, cat. ant-pm-2), 10% defined fetal bovine serum, heat inactivated (HyClone Laboratories Inc., Logan, UT, cat. SH30070.03HI), 50% L-WRN conditioned media (ATCC, cat. CRL-3276), 1.25 mM N-Acetyl-L-cysteine (Sigma-Aldrich, cat. A9165), 10 mM nicotinamide (Sigma-Aldrich, cat. N0636), 1X B-27 supplement (Thermo Fisher Scientific, cat. 17504044), 1X N-2 supplement (Thermo Fisher Scientific, cat. […]
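Further: spheroids exposed to drugs for seven days before reading.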
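Wherever viability, T/C is given: 100% = DMSO vehicle control viability in luminescence.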

With Nc1ccn(C2OC(CO)C(O)C2(F)F)c(=O)n1 (centres undefined) + COC1C(OC(N)=O)C(O)C(Oc2ccc3c(O)c(NC(=O)c4ccc(O)c(CC=C(C)C)c4)c(=O)oc3c2C)OC1(C)C as the compound, how does the IC50 (curve of first compound, second compound 0.0316 µM) read?
The IC50 was over 10 µM.

And the IC50 (curve of first compound, second compound 0.1 µM)?
The IC50 was over 10 µM.

And the IC50 (curve of first compound, second compound 0.316 µM)?
Its IC50 is over 10 µM.

And the IC50 (curve of first compound, second compound 1 µM)?
Its IC50 is over 10 µM.

What about the IC50 (curve of first compound, second compound 3.16 µM) of the same compound?
The IC50 was over 10 µM.

What about the IC50 (curve of first compound, second compound 10 µM) of the same compound?
Its IC50 is over 10 µM.

And the viability, T/C (second compound 0.0316 µM, first compound 0.0316 µM)?
Its viability, T/C is 98.8%.

What about the viability, T/C (second compound 0.0316 µM, first compound 0.1 µM) of the same compound?
The viability, T/C was 72.9%.

What about the viability, T/C (second compound 0.0316 µM, first compound 0.316 µM) of the same compound?
The viability, T/C was 75.7%.

And the viability, T/C (second compound 0.0316 µM, first compound 1 µM)?
The viability, T/C was 63.5%.

What about the viability, T/C (second compound 0.0316 µM, first compound 3.16 µM) of the same compound?
The viability, T/C was 66%.

And the viability, T/C (second compound 0.0316 µM, first compound 10 µM)?
Its viability, T/C is 53.9%.

And the viability, T/C (second compound 0.1 µM, first compound 0.0316 µM)?
The viability, T/C was 95.6%.

And the viability, T/C (second compound 0.1 µM, first compound 0.1 µM)?
Its viability, T/C is 80.1%.

What about the viability, T/C (second compound 0.1 µM, first compound 0.316 µM) of the same compound?
Its viability, T/C is 76.5%.

And the viability, T/C (second compound 0.1 µM, first compound 1 µM)?
Its viability, T/C is 66%.

And the viability, T/C (second compound 0.1 µM, first compound 3.16 µM)?
Its viability, T/C is 58%.

What about the viability, T/C (second compound 0.1 µM, first compound 10 µM) of the same compound?
The viability, T/C was 57.3%.

And the viability, T/C (second compound 0.316 µM, first compound 0.0316 µM)?
Its viability, T/C is 90.2%.

What about the viability, T/C (second compound 0.316 µM, first compound 0.1 µM) of the same compound?
The viability, T/C was 79.7%.

And the viability, T/C (second compound 0.316 µM, first compound 0.316 µM)?
Its viability, T/C is 72.6%.

And the viability, T/C (second compound 0.316 µM, first compound 1 µM)?
The viability, T/C was 62.4%.

And the viability, T/C (second compound 0.316 µM, first compound 3.16 µM)?
Its viability, T/C is 60.3%.

What about the viability, T/C (second compound 0.316 µM, first compound 10 µM) of the same compound?
The viability, T/C was 59.5%.

What about the viability, T/C (second compound 1 µM, first compound 0.0316 µM) of the same compound?
The viability, T/C was 86.1%.

What about the viability, T/C (second compound 1 µM, first compound 0.1 µM) of the same compound?
The viability, T/C was 84.9%.

And the viability, T/C (second compound 1 µM, first compound 0.316 µM)?
The viability, T/C was 73.9%.

What about the viability, T/C (second compound 1 µM, first compound 1 µM) of the same compound?
The viability, T/C was 72%.

And the viability, T/C (second compound 1 µM, first compound 3.16 µM)?
The viability, T/C was 56.2%.

What about the viability, T/C (second compound 1 µM, first compound 10 µM) of the same compound?
Its viability, T/C is 58.4%.

What about the viability, T/C (second compound 3.16 µM, first compound 0.0316 µM) of the same compound?
The viability, T/C was 91.9%.

And the viability, T/C (second compound 3.16 µM, first compound 0.1 µM)?
Its viability, T/C is 87.3%.

What about the viability, T/C (second compound 3.16 µM, first compound 0.316 µM) of the same compound?
The viability, T/C was 74.8%.

What about the viability, T/C (second compound 3.16 µM, first compound 1 µM) of the same compound?
The viability, T/C was 62.9%.

And the viability, T/C (second compound 3.16 µM, first compound 3.16 µM)?
Its viability, T/C is 62.6%.

And the viability, T/C (second compound 3.16 µM, first compound 10 µM)?
Its viability, T/C is 53.5%.

What about the viability, T/C (second compound 10 µM, first compound 0.0316 µM) of the same compound?
Its viability, T/C is 95.8%.

And the viability, T/C (second compound 10 µM, first compound 0.1 µM)?
Its viability, T/C is 89.4%.

What about the viability, T/C (second compound 10 µM, first compound 0.316 µM) of the same compound?
The viability, T/C was 75.7%.

And the viability, T/C (second compound 10 µM, first compound 1 µM)?
The viability, T/C was 65.1%.

And the viability, T/C (second compound 10 µM, first compound 3.16 µM)?
The viability, T/C was 66.9%.

And the viability, T/C (second compound 10 µM, first compound 10 µM)?
The viability, T/C was 58.7%.

Which results are given for O=C(Nc1ccc(O)c(NS(=O)(=O)c2ccc(F)cc2)c1)c1ccc(-c2ccccc2)cc1?
viability, T/C (compound 0.0316 µM): 104% and 99.9% and 101%; viability, T/C (compound 0.1 µM): 99.1% and 96.7% and 91.7%; viability, T/C (compound 0.316 µM): 102% and 97.6% and 88.4%; viability, T/C (compound 1 µM): 101% and 99.2% and 96%; viability, T/C (compound 3.16 µM): 103% and 99.1% and 99.2%; viability, T/C (compound 10 µM): 104% and 100% and 93.4%; IC50 (curve of compound): > 10 µM

Which results are given for COc1cccc(OCCCN)c1-c1cc(Nc2cnc(C#N)cn2)n[nH]1?
viability, T/C (compound 0.00316 µM): 96.6% and 99.2% and 101%; viability, T/C (compound 0.0316 µM): 33% and 47.4% and 44%; viability, T/C (compound 0.1 µM): 32.7% and 40.1% and 36.7%; viability, T/C (compound 0.316 µM): 32.7% and 38.2% and 35.7%; viability, T/C (compound 1 µM): 28.8% and 37.6% and 34.5%; IC50 (curve of compound): 0.0153 µM and 0.0294 µM and 0.0264 µM

How did the viability, T/C (compound 0.0316 µM) turn out when CCCS(=O)(=O)Nc1ccc(F)c(C(=O)c2c[nH]c3ncc(-c4ccc(Cl)cc4)cc23)c1F was run?
Its viability, T/C is 96.5% and 100% and 106%.

What about the viability, T/C (compound 0.1 µM) of the same compound?
Its viability, T/C is 108% and 104% and 96.8%.

What about the viability, T/C (compound 0.316 µM) of the same compound?
The viability, T/C was 105% and 96.5% and 104%.

What about the viability, T/C (compound 1 µM) of the same compound?
The viability, T/C was 106% and 108% and 97.6%.

And the viability, T/C (compound 3.16 µM)?
Its viability, T/C is 116% and 106% and 120%.

And the viability, T/C (compound 10 µM)?
Its viability, T/C is 74% and 82% and 94.8%.

What about the IC50 (curve of compound) of the same compound?
The IC50 was over 10 µM.

For Nc1ccc(C#CCN(C(=O)Cc2ncc(C(F)(F)F)cc2C(F)(F)F)c2ccc(F)cc2)nn1, which viability, T/C (compound 0.0316 µM) is on record?
The viability, T/C was 104% [middle of 13 runs].

What about the viability, T/C (compound 0.1 µM) of the same compound?
The viability, T/C was 106% [middle of 13 runs].

What about the viability, T/C (compound 0.316 µM) of the same compound?
Its viability, T/C is 106% [middle of 13 runs].

And the viability, T/C (compound 1 µM)?
The viability, T/C was 105% [middle of 13 runs].

What about the viability, T/C (compound 3.16 µM) of the same compound?
The viability, T/C was 105% [middle of 13 runs].

And the viability, T/C (compound 10 µM)?
The viability, T/C was 107% [middle of 13 runs].

And the IC50 (compound alone, run of 11/06/2023)?
Its IC50 is over 10 µM.
